Three compounds from US8735446B2, “Vanillin acetals and sensory stimulant composition containing the same” (Takasago International Corporation, priority 2005, dated 2014) can be followed below.

The subject of assay [1] is ten expert panelists. Put plainly: Sensory Evaluation 1: oral evaluation of 10 ppm aqueous solutions. It counts as in vivo, human. Set-up: key to Instantaneous sensation: ⊚: very fast; ◯: fast; Δ: is somewhat slow; x: slow. Conditions: for Instantaneous sensation / Intensity: oral evaluation, 10 ppm aqueous solution, warming sensation and pungent taste, average of ten panelists; for Intensity: scale 5 very strong, 4 strong, 3 weak, 2 very weak, 1 not able to feel. The protocol: Compound A and Compound C obtained in Example 1 and Example 3, respectively, were subjected to oral evaluation using 10 ppm aqueous solutions of them by ten expert panelists having 5 or more year experience, and an instantaneous sensation and an intensity of warming sensation and pungent taste were evaluated on the basis of the following evaluation criteria. On the sensory evaluation, 4-(l-methoxymethyl)-2-(3′-methoxy-4′-hydroxyphenyl)-1,3-dioxolan (Comparative compound A: the compound described in JP-A-8-225564) was used as a comparative compound. The evaluation results in the table show the average value of ten panelists.

Assay [2] has as its system skin. Put plainly: warm sensation and stimulating effect on the skin. It counts as in vivo, human.

Turning to `COCC1COC(c2ccc(O)c(OC)c2)O1` (stereo not drawn) [Comparative compound A, 4-(l-methoxymethyl)-2-(3′-methoxy-4′-hydroxyphenyl)-1,3-dioxolan, reference compound], in assay [1], the “pungent and warming effect in the mouth” value was “strong pungent and warming effect in the mouth”; the Instantaneous sensation result was “Δ”; the Intensity was 2.8. For the same compound, the “warm sensation and stimulating effect on the skin” value in assay [2] is “strong warm sensation and stimulating effect on the skin”.
For `CCCCC1COC(c2ccc(O)c(OC)c2)O1` (stereo not drawn) [Compound A, vanillin-1,2-hexylene glycol acetal], in assay [1], the “pungent and warming effect in the mouth” value is “strong pungent and warming effect in the mouth”; the Instantaneous sensation entry is “⊚”; the Intensity amounted to 4.5. The “warm sensation and stimulating effect on the skin” value in assay [2] was “strong warm sensation and stimulating effect on the skin”.
With `CCCCOCC1COC(c2ccc(O)c(OC)c2)O1` (stereo not drawn) [Compound C, vanillin-1-butoxyglycerol acetal], in assay [1], the “pungent and warming effect in the mouth” value was “strong pungent and warming effect in the mouth”; the Instantaneous sensation result was “⊚”; the Intensity was determined as 4.2. In assay [2], the “warm sensation and stimulating effect on the skin” value is “strong warm sensation and stimulating effect on the skin”.
